Experimental data published in patent US20110201620A1, “2-(3-AMINOARYL) AMINO-4-ARYL-THIAZOLES AND THEIR USE AS C-KIT INHIBITORS” (AB SCIENCE, priority 2002, published 2011).

Tests used:
[1] = test system: imatinib-resistant HMC-1 α155 cells; assay: Apoptosis assay by propidium iodide staining; assay type: cell-based, human; conditions: 1 μM
Procedure: HMC-1 is a human mast cell line derived from a patient with mast cell leukaemia. The cell line used in this study, HMC-1 α155, is a clone derived from the original population expressing endogenous Kit bearing the mutation Val 560 to Gly. […] The medium used in this case was a RPMI medium containing L-glutamine (Cambrex cat# 12-702F) supplemented with 100 U/mL penicillin and 100 μg/mL streptomycin (Cambrex 100X penicilline/streptomycine mixture cat #17-602E), and with 10% v/v foetal calf serum (AbCys Lot S02823S1800) which has been previously heat-inactivated 30 minutes at 56° C. (RPMI 10). The medium containing the drugs was replaced with fresh one every 3-4 days. […] The principle behind the method for apoptosis assay by Propidium Iodide Staining (PI staining) is as follows: during apoptosis, DNA breakup causes small fragments of DNA to be free in the nucleus. Following appropriate elution with citrate buffer, these fragments are lost from the nucleus. As these cells now have a lower DNA content, subsequent staining with a DNA binding dye will reveal these cells in the sub-G1 region.
The % apoptosis represents the percentage of cells in apoptose with respect to overall cells.

Human Kit exon 9 = conditions: read-out: Cell proliferation assay (IC50) Human Kit exon 9; cited from earlier work

In the case of `Cc1ccc(NC(=O)c2ccc(CN3CCN(C)CC3)cc2)cc1Nc1nc(-c2cccnc2)cs1` [Compound 066, 4-(4-methyl-piperazin-1-ylmethyl)-N-[4-methyl-3-(4-pyridin-3-yl-thiazol-2-ylamino)-phenyl]-benzamide], the “% apoptosis (cells in apoptosis)” value [1] is listed as “More than 45%” and the IC50 (Human Kit exon 9) is listed as 100 nM.
